Reference: paper PMC10686828, “DMSOP-cleaving enzymes are diverse and widely distributed in marine microorganisms” (Nature Microbiology, 2023)

Assays:
[1] = target: T1, DddY (Acinetobacter bereziniae) (Acinetobacter bereziniae, UniProt N8X9V6); experiment: HPLC of DMSO and acrylate; type: biochemical; details: 5 mM DMSOP, pH 8.0, 30 °C
T1 construct: gene F963_02809; pET-22b, C-terminal His tag, E. coli BL21(DE3); Ni-NTA and gel filtration
T1 sequence (N8X9V6 22-401 limits assumed): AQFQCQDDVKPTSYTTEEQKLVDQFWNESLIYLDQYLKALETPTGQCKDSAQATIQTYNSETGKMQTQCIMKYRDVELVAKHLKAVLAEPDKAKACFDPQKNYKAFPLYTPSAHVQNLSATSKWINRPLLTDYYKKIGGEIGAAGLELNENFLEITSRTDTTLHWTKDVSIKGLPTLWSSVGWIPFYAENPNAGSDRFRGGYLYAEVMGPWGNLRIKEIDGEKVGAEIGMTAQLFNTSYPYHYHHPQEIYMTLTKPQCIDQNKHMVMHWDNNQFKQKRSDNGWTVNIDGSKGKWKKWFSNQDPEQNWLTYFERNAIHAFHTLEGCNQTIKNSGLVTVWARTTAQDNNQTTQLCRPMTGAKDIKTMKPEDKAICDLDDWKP

DddL = tested on: T2, DddL; experiment: HPLC of acrylate, initial rates, non-linear fit; type: biochemical; details: pH 8, 30 °C
T2 construct: pET-22b, C-terminal His tag, E. coli BL21(DE3)

C[S+](C)(=O)CCC(=O)[O-] [DMSOP]
HPLC of DMSO and acrylate [1]: purified DddY proteins yielded DMSO and acrylate from DMSOP
Km (DddL): 65 ± 10.9 mM
